Melting point, IC50 and EC50 data for 20 compounds are collected here from patent US8546608B2, “Proteasome inhibitors and methods of using the same” (Cephalon, Inc., priority 2003, dated 2013).

Data set [1] deals with T1, 20S Human Erythrocyte Proteasome (HEP) (Homo sapiens, UniProt P20618+P28074).
T1 construct: 20S Human Erythrocyte Proteasome (HEP), purchased from Immatics Biotechnologies Inc; purchased Immatics Biotechnologies Inc., Tübingen, Germany; host or cells: human erythrocytes (natural source)
The experiment in a line: Chymotrypsin-like activity of 20S Human Erythrocyte Proteasome (HEP), IC50 determination. The class given is biochemical. The following applies: assay of Example C, inhibition of HEP. In outline:
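20S proteasome at 0.2 μg/mL (about 0.6 nM catalytic sites) in 20 mM Tris with 0.04% SDS, preincubated 15 min at 37° C with inhibitor before Suc-LLVY-AMC (100 μM final). AMC fluorescence read in the linear range; triplicates, IC50 from concentration series.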

The target in data set [2] is T2, proteasome in Molt-4 cells (human leukemia) (Homo sapiens, UniProt P20618+P28074).
T2 sequence (P28074 60-263): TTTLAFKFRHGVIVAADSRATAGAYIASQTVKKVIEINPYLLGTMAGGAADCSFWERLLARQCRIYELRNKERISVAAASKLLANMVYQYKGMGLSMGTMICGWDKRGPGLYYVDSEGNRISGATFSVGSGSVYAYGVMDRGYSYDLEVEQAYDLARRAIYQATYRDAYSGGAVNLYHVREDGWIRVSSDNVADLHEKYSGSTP
T2 sequence (P20618 29-241): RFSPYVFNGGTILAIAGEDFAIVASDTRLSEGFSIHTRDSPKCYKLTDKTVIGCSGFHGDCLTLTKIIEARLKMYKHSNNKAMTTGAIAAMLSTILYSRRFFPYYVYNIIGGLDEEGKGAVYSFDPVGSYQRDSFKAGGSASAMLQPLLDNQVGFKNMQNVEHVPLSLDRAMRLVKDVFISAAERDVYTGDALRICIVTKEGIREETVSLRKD
It is filed as cell-based. In outline:
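Intact Molt-4 cells (6×10^6 cells/mL) in HEPES-buffered saline were preincubated with inhibitor 15 min at 37 °C, then given cell-permeable MeOSuc-FLF-AFC at 25 μM final.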

Where [3] appears, read: assay of Example E, inhibition of MOLT4; read-out: MOLT4 (EC50).

Structures can show the parent of a compound that is named as a salt. Where two headings read alike, the source gives them in different places. Some results are limits rather than exact numbers.

In turn, `CCCCc1ccc(C(=O)N[C@@H](CNC(=O)c2ccc(-n3cncn3)cc2)C(=O)N[C@@H](CC(C)C)B(O)O)cc1` (as salt: hydrochloride) [E.5.40, Boronic acid, [(1R)-1-[[(2S)-3-(4-(1H-1,2,4-triazol-1-yl)benzoylamide)]-2-[(4-butylbenzoyl)amino]-1H-oxopropyl]amino]-3-methylbutyl] hydrochloride] yielded a melting point of 192 to 195 °C. For `CC(C)C[C@H](NC(=O)[C@@H](NC(=O)[C@H](CC(C)C)NC(=O)OCc1ccccc1)[C@@H](C)O)B1O[C@@H]2C[C@@H]3C[C@@H](C3(C)C)[C@]2(C)O1` [D.8.1, (2S)-2-[(Benzyloxycarbonyl)amino]-4-methylpentanamide, N-[(1S,2R)-1-[[[(1R)-1-[(3aS,4S,6S,7aR)-hexahydro-3a,5,5-trimethyl-4,6-methano-1,3,2-benzodioxaborol-2-yl]-3-methylbutyl]amino]carbonyl]-2-hydroxypropyl]-], the melting point fell in the range of 38 to 40 °C. Still for that read-out and setting: for `CC(C)C[C@H](NC(=O)[C@H](CNC(=O)OCc1ccccc1)NC(=O)c1ccc(Oc2ccccc2)cc1)B1O[C@@H]2C[C@@H]3C[C@@H](C3(C)C)[C@]2(C)O1` [D.16.9] the value was 100 to 103 °C; for `CCCCCCCCCC(=O)N[C@@H](CNC(=O)c1ccc(S(N)(=O)=O)cc1)C(=O)N[C@@H](CC(C)C)B1O[C@@H]2C[C@@H]3C[C@@H](C3(C)C)[C@]2(C)O1` [D.24.2, Decanamide, N-[(1S)-1-[[[(1R)-1-[(3aS,4S,6S,7aR)-hexahydro-3a,5,5-trimethyl-4,6-methano-1,3,2-benzodioxaborol-2-yl]-3-methylbulyl]amino]carbonyl]-2-[(4-sulfonamidophenyl)carbonyl-amido]ethyl]-], 178 to 181 °C.

As to `CCCCc1ccc(C(=O)N[C@@H](CNC(=O)c2cccn2C)C(=O)N[C@@H](CC(C)C)B2O[C@@H]3C[C@@H]4C[C@@H](C4(C)C)[C@]3(C)O2)cc1` [D.24.13], the melting point is 88 to 92 °C.

Consider `CCCCc1ccc(C(=O)N[C@@H](CNC(=O)c2ccno2)C(=O)N[C@@H](CC(C)C)B2O[C@@H]3C[C@@H]4C[C@@H](C4(C)C)[C@]3(C)O2)cc1` [D.24.21, 4-butylbenzamide, N-[(1S)-1-[[[(1R)-1-[(3aS,aS,6S,7aR)-hexahydro-3a,5,5-trimethyl-4,6-methano-1,3,2-benzodioxaborol-2-yl-]-3-methylbutyl]amino]carbonyl]-2-[(1-isoxazol-5-yl)-carbonylamino]ethyl]-], for which the melting point lay within 128 to 130 °C. The same measure, in the same setting: for `CCCCc1ccc(C(=O)N[C@@H](CNS(=O)(=O)c2cn(C)cn2)C(=O)N[C@@H](CC(C)C)B2O[C@@H]3C[C@@H]4C[C@@H](C4(C)C)[C@]3(C)O2)cc1` [D.24.23, 4-butylbenzamide, N-[(1S)-1-[[[(1R)-1-[(3aS,aS,6S,7aR)-hexahydro-3a,5,5-trimethyl-4,6-methano-1,3,2-benzodioxaborol-2-yl-]-3-methylbulyl]amino]carbonyl]-2-[(1-methyl-1H-imidazole-4-)sulfonylamino]ethyl]-] the value was 69 to 71 °C; for `CC(C)C[C@H](NC(=O)[C@H](CNS(=O)(=O)c1ccc(F)cc1)NC(=O)c1ccc(Oc2ccccc2)cc1)B1O[C@@H]2C[C@@H]3C[C@@H](C3(C)C)[C@]2(C)O1` [D.24.29, 4-phenoxybenzamide, N-[(1S)-1-[[[(1R)-1-[(3aS,4S,6S,7aR)-hexahydro-3a,5,5-trimethyl-4,6-methano-1,3,2-benzodioxaborol-2-yl]-3-methylbutyl]amino]carbonyl]-2-[4-fluoro-benzenesulfonammide]ethyl]-], 90 to 93 °C; for `Cc1cc(C(=O)NC[C@H](NC(=O)c2ccc(Oc3ccccc3)cc2)C(=O)N[C@@H](CC(C)C)B2O[C@@H]3C[C@@H]4C[C@@H](C4(C)C)[C@]3(C)O2)n(C)n1` [D.24.30, 4-phenoxybenzamide, N-[(1S)-1-[[[(1R)-1-[(3aS,aS,6S,7aR)-hexahydro-3a,5,5-trimethyl-4,6-methano-1,3,2-benzodioxaborol-2-yl-]-3-methylbutyl]amino]carbonyl]-2-[(2,5-dimethyl-2H-pyrazole)carbonylamino]ethyl]-], 100 to 103 °C. Same read-out and setting: the result for `CC(C)C[C@H](NC(=O)[C@H](CNC(=O)c1ccc(-c2ccccc2)cc1)NC(=O)c1ccc(Oc2ccccc2)cc1)B1O[C@@H]2C[C@@H]3C[C@@H](C3(C)C)[C@]2(C)O1` [D.24.31, 4-phenoxybenzamide, N-[(1S)-1-[[[(1R)-1-[(3aS,4S,6S,7aR)-hexahydro-3a,5,5-trimethyl-4,6-methano-1,3,2-benzodioxaborol-2-yl]-3-methylbutyl]amino]carbonyl]-2-(4-phenylbenzoylamino)ethyl]-] reads 150 to 152 °C; that for `CCCCc1ccc(C(=O)N[C@@H](CNC(=O)c2ccc(-c3ccccc3)cc2)C(=O)N[C@@H](CC(C)C)B2O[C@@H]3C[C@@H]4C[C@@H](C4(C)C)[C@]3(C)O2)cc1` [D.24.32, 4-butylbenzamide, N-[(1S)-1-[[[(1R)-1-[(3aS,4S,6S,7aR)-hexahydro-3a,5,5-trimethyl-4,6-methano-1,3,2-benzodioxaborol-2-yl]-3-methylbutyl]amino]carbonyl]-2-(4-phenylbenzoylamino)ethyl]-], 195 to 198 °C. The same measure, in the same setting: the result for `CCCCc1ccc(C(=O)N[C@@H](CNC(=O)C#Cc2ccccc2)C(=O)N[C@@H](CC(C)C)B2O[C@@H]3C[C@@H]4C[C@@H](C4(C)C)[C@]3(C)O2)cc1` [D.24.33, 4-butylbenzamide, N-[(1S)-1-[[[(1R)-1-[(3aS,4S,6S,7aR)-hexahydro-3a,5,5-trimethyl-4,6-methano-1,3,2-benzodioxaborol-2-yl]-3-methylbutyl]amino]carbonyl]-2-(3-phenylpropynoylamino)ethyl]-] reads 118 to 120 °C; that for `CCCCc1ccc(C(=O)N[C@@H](CNC(=O)C2CCN(S(C)(=O)=O)CC2)C(=O)N[C@@H](CC(C)C)B2O[C@@H]3C[C@@H]4C[C@@H](C4(C)C)[C@]3(C)O2)cc1` [D.24.36, 4-butylbenzamide, N-[(1S)-1-[[[(1R)-1-[(3aS,aS,6S,7aR)-hexahydro-3a,5,5-trimethyl-4,6-methano-1,3,2-benzodioxaborol-2-yl-]-3-methylbutyl]amino]carbonyl]-2-(1-methanesulfonyl-piperidine-4-carbonylamino)ethyl]-], 170 to 172 °C. Take `CCCCc1ccc(C(=O)N[C@@H](CNC(=O)Cc2ccc(OC)c(OC)c2)C(=O)N[C@@H](CC(C)C)B(O)O)cc1` [E.5.15, Boronic acid, [(1R)-1-[[(2S)-3-[(3,4-dimethoxyphenyl)acetylamino]-2-[(4-butylbenzoylamino)]-1-oxopropyl]amino]-3-methylbutyl]]: the melting point is 150 to 152 °C. `CCCCc1ccc(C(=O)N[C@@H](CNC(=O)c2cc(C)nn2C)C(=O)N[C@@H](CC(C)C)B(O)O)cc1` [E.5.29, Boronic acid, [(1R)-1-[[(2S)-3-(4-(1,3-dimethyl-1H-pyrazole-5-carbonylamino]-2-[(4-butylbenzoyl)amino]-1-oxopropyl]amino]-3-methylbutyl] hydrochloride]: the IC50 in data set [1] is less than 10 nM. For the same compound, the EC50 in data set [2] (read-out: MOLT4 (EC50); assay of Example E, inhibition of MOLT4) is less than 200 nM. The compound `CCCCc1ccc(C(=O)N[C@@H](CNC(=O)c2ccc(-n3cncn3)cc2)C(=O)N[C@@H](CC(C)C)B(O)O)cc1` [E.5.40, Boronic acid, [(1R)-1-[[(2S)-3-(4-(1H-1,2,4-triazol-1-yl)benzoylamide)]-2-[(4-butylbenzoyl)amino]-1H-oxopropyl]amino]-3-methylbutyl] hydrochloride] gave an IC50 in data set [1] of less than 10 nM. The EC50 in data set [2] (setting [3]) is less than 200 nM. In turn, `CCCCc1ccc(C(=O)N[C@H](CNC(=O)c2ccc(C)cc2)C(=O)N[C@@H](CC(C)C)B(O)O)cc1` [E.5.41] returned an IC50 in data set [1] of less than 100 nM. Further, the EC50 in data set [2] (setting [3]) was less than 200 nM. The like results for `CCCCc1ccc(C(=O)N[C@H](C(=O)N[C@@H](CC(C)C)B2OC3(CCCCC3)C3(CCCCC3)O2)[C@@H](C)O)cc1` [F.2.1, 4-Butylbenzamide, N-[(1S,2R)-1-[[[(1R)-1-[13,15-dioxa-14-bora-dispiro[5.0.5.3]pentadec-14-yl]-3-methylbutyl]amino]carbonyl]-2-hydroxypropyl]-] were, in that order, less than 100 nM and 200 to 2000 nM. The matching figures for “Boronic acid, [(1R)-1-[[(2S)-5- [[imino(nitroamino)methyl]amino]-2-[(hexahydro- 2,5-methanopentalene-3a(1H)-carbonyl)amino]-1- oxopentyl]amino]-3-methylbutyl] [E.2.24]”: less than 10 nM and greater than 10000 nM. The matching figures for “Boronic acid, [(1R)-1-[[(2S)-5- [[imino(nitroamino)methyl]amino]-2-[[(thiophene- 2-sulfonyl)acetyl]amino]-1-oxopentyl]amino]-3- methylbutyl] [E.2.69]”: less than 10 nM and greater than 10000 nM.

The term melting point denotes the temperature, or range, at which the solid turns liquid. For orientation: IC50 means the midpoint of a concentration-inhibition curve. The low end stands for inhibition by little substance, the high end for a need for much substance. As usually defined, the EC50 is the concentration at which the effect is half-maximal.
